“Also recorded” adds a separate entry of the source.
Tests used:
[1] = tested on: IL1β (interleukin 1 beta); experiment: Inhibition of LPS-induced synthesis and liberation of cellular IL1β in human mononuclear cells (sandwich enzyme immuno test of supernatant); assay type: cell-based; conditions: for activity at 10 µM: concentration 0.01 mmol/l; for activity at 100 µM: concentration 0.1 mmol/l; for inhibitory effect on the synthesis and liberation of cytokines from human blood cells / effect on the IL1β level: in words; for effect on the IL1β level: human mononuclear cells, LPS-induced
Method: 10 ml of freshly prepared human citrate blood were carefully underlaid with 15 ml of Lymphoprep® (Molter GmbH, Heidelberg) and then centrifuged at 400×g for 40 min. at 20° C. The cell fraction which was visible as a white ring at the phase boundary was withdrawn with the aid of a syringe, diluted 1:1 (v/v) with PM-16 buffer (from Serva Feinbiochemica GmbH & Co. KG, Heidelberg) and then centrifuged, as above, for 10 min. […] Using a cell counter (type IT, from Coulter Diagnostics, Krefeld), the cell suspension, which is composed of about 90% lymphocytes and 10% monocytes, was adjusted to about 5 million cells/ml. Cell viability was monitored before and after the inhibition experiments using the known lactate dehydrogenase method.
The synthesis and liberation of cellular IL1β was induced by adding a solution of 500 ng of lipopolysaccharide (Salmonella abortus equi, Sigma GmbH, Deisenhofen) in 0.01 ml of dimethyl sulfoxide/water (1:10, v/v) to 0.48 ml of the above-described cell fraction. At the same time, a solution of leflunomide or leflunomide metabolite in 0.01 ml of dimethyl sulfoxide (for the final concentration in each case, see Tab. 1) was added to the cell fraction and the mixture was left at 37° C. for 20 h in a commercially available incubator. After cooling down to 0° C., the samples were centrifuged for 1 min. in a bench centrifuge and in each case 0.025 ml aliquots of the supernatant were examined for their IL1β content using a "sandwich" enzyme-immuno test kit (from Biermann GmbH, Bad Nauheim) in accordance with the manufacturer's instructions. The control values were determined without the addition of leflunomide or metabolite and set at 100%.

[2] = tested on: isolated blood cell fraction (mononuclear cells); experiment: Metabolism of leflunomide in the mononuclear cell test sample (HPLC, time-dependent); assay type: in vitro ADME, human; conditions: in words; isolated blood cell fraction (mononuclear cells)
[3] = as above; assay type: in vitro ADME, human; conditions: human, mononuclear cells; mononuclear cell test sample, 37° C., HPLC
SD rat = experiment: Acute toxicity following intraperitoneal administration, SD rats; assay type: in vivo; conditions: after 3 weeks, Litchfield and Wilcoxon, 30240 min
Method: (§1) The acute toxicity following intraperitoneal administration of the test substance was carried out using NMRI mice (20 to 25 g) and SD rats (120 to 195 g). The test substance was suspended in a 1% strength solution of sodium carboxymethyl cellulose. The different doses of the test substance were administered to the mice in a volume of 10 ml/kg of body weight and to the rats in a volume of 5 ml/kg of body weight. 10 animals were used per dose. After 3 weeks, the acute toxicity was determined by the method of Litchfield and Wilcoxon.

NMRI mouse = experiment: Acute toxicity following intraperitoneal administration, NMRI mice; assay type: in vivo; conditions: after 3 weeks, Litchfield and Wilcoxon, 30240 min
Method: as §1

[4] = Homo sapiens, control without addition = 100%, +/- standard deviation, 20 h, 37° C., LPS 500 ng

Row | Structure (SMILES) | activity at 10 µM [1, 4] [%] | activity at 100 µM [1, 4] [%] | inhibitory effect on the synthesis and liberation of cytokines from human blood cells [1] | effect on the IL1β level [1] | metabolism of leflunomide under the experimental conditions [2] | half-life [3] [h] | acute toxicity intraperitoneally LD50 (SD rat) | acute toxicity intraperitoneally LD50 (NMRI mouse) | activity at 0.1 µM ([1]; Homo sapiens, concentration 0.0001 mmol/l, control without addition = 100%, +/- standard deviation, 20 h, 37° C., LPS 500 ng) [%] | activity at 5 µM ([1]; Homo sapiens, concentration 0.005 mmol/l, control without addition = 100%, n = 2, deviation not given, 20 h, 37° C., LPS 500 ng) [%] | activity at 50 µM ([1]; Homo sapiens, concentration 0.05 mmol/l, control without addition = 100%, +/- standard deviation, 20 h, 37° C., LPS 500 ng) [%]
1 | C/C(O)=C(\C#N)C(=O)Nc1ccc(C(F)(F)F)cc1 [Leflunomide metabolite, N-(4-trifluoromethylphenyl)-2-cyano-3-hydroxycrotonamide] | 100 ± 3 | 99 ± 12 | does not exhibit this advantageous effect | practically no effect on the IL1β level | – | – | – | – | – | – | –
2 | Cc1oncc1C(=O)Nc1ccc(C(F)(F)F)cc1 [Leflunomide, N-(4-trifluoromethylphenyl)-5-methylisoxazole-4-carboxamide] | 70 ± 8 | 17 ± 4 | strong inhibitory effect | clearly lowered | did not, to any appreciable extent, metabolize the leflunomide to its metabolites; also recorded: metabolized only very slowly; also recorded: no appreciable metabolism | ~10 | 170 (153-189) mg/kg | 185 (163-210) mg/kg | 86 ± 11 | 68 | 27 ± 6

From patent US5556870A, “Use of leflunomide for inhibiting interleukin 1 beta” (priority 1993, dated 1996)
